Key:
human PPARα = biological target: T1, human PPARα (Homo sapiens, UniProt Q07869); assay: Reporter gene transactivation, hPPAR-GAL4 alpha; assay type: cell-based; details: transfected Cos-7 cells, Gal-4 luciferase reporter, 24 hours treatment
T1 construct: expressed in transfected cells; host or cells: Cos-7 cells (ATCC, CRL-1651)
T1 sequence (Q07869 239-466 limits assumed): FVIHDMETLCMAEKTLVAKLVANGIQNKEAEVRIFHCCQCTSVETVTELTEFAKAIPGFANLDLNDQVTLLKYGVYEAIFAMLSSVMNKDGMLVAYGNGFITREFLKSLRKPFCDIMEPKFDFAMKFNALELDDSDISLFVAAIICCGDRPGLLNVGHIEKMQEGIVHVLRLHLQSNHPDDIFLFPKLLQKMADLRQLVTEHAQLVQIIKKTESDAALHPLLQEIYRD

human PPARγ = biological target: T2, human PPARγ (Homo sapiens, UniProt P37231); assay: Reporter gene transactivation, hPPAR-GAL4 gamma; assay type: cell-based; details: transfected Cos-7 cells, Gal-4 luciferase reporter, 24 hours treatment
T2 construct: expressed in transfected cells; host or cells: Cos-7 cells (ATCC, CRL-1651)
T2 sequence (P37231 238-503 limits assumed): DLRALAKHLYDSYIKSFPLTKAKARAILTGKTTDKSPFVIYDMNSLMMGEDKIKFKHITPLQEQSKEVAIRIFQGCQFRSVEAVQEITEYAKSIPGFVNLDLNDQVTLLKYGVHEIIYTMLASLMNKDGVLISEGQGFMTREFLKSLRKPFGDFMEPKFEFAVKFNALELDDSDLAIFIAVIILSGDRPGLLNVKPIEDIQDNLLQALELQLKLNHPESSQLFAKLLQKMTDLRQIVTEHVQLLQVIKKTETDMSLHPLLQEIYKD

Structure (SMILES) | EC50 (human PPARα) | EC50 (human PPARγ)
CCCCCCCn1nc(OCCCCOc2cccc(OC(C)(C)C(=O)OCC)c2)c(=O)n(C)c1=O [Example 36, Ethyl 2-{3-[4-(2-heptyl-4-methyl-3,5-dioxo-2,3,4,5-tetrahydro-[1,2,4]triazin-6-yloxy)-butoxy]-phenoxy}-2-methyl-propionate] | 0.3 to 1 µM | 3 to 10 µM
CCCCCCCn1nc(NCCCCc2cccc(OC(C)(C)C(=O)OCC)c2)c(=O)n(Cc2ccccc2)c1=O [Example 91, Ethyl 2-{3-[4-(4-benzyl-2-heptyl-3,5-dioxo-2,3,4,5-tetrahydro-[1,2,4]triazin-6-ylamino)-butyl]-phenoxy}-2-methyl-propionate] | 0.3 to 1 µM | 3 to 10 µM
CCCCCCCn1nc(OCCCCOc2cccc(SC(C)(C)C(=O)OCC)c2)c(=O)n(C)c1=O [Example 37, Ethyl 2-{3-[4-(2-heptyl-4-methyl-3,5-dioxo-2,3,4,5-tetrahydro-[1,2,4]triazin-6-yloxy)-butoxy]-phenylsulfanyl}-2-methyl-propionate] | > 10 µM | ~10 µM
CCCCCCCn1nc(N(CCCOc2cccc(OC(C)(C)C(=O)OCC)c2)CCCC(F)(F)F)c(=O)n(C)c1=O [Example 51, Ethyl 2-(3-{3-[(2-heptyl-4-methyl-3,5-dioxo-2,3,4,5-tetrahydro-[1,2,4]triazin-6-yl)-(4,4,4-trifluoro-butyl)-amino]-propoxy}-phenoxy)-2-methyl-propionate] | 3 to 10 µM | > 10 µM
CCOC(=O)/C=C/Cn1nc(NCCc2ccc(OC(C)(C)C(=O)OCC)cc2)c(=O)n(CCCC(F)(F)F)c1=O [Example 104, Ethyl 4-[6-{2-[4-(1-ethoxycarbonyl-1-methyl-ethoxy)-phenyl]-ethylamino}-3,5-dioxo-4-(4,4,4-trifluoro-butyl)-4,5-dihydro-3H-[1,2,4]triazin-2-yl]-but-2-enoate] | 1 to 3 µM | > 10 µM
CCCCCCCn1nc(NCCc2cccc(OC(C)(C)C(=O)OCC)c2)c(=O)n(C)c1=O [Example 57, Ethyl 2-{3-[2-(2-heptyl-4-methyl-3,5-dioxo-2,3,4,5-tetrahydro-[1,2,4]triazin-6-ylamino)-ethyl]-phenoxy}-2-methyl-propionate] | ~3 µM | 1 to 3 µM
CCCCCCCn1c(=O)c(NCCCCOc2ccc(OC(C)(C)C(=O)OCC)cc2)nn(C)c1=O [Example 50, Ethyl 2-{4-[4-(4-heptyl-2-methyl-3,5-dioxo-2,3,4,5-tetrahydro-[1,2,4]triazin-6-ylamino)-butoxy]-phenoxy}-2-methyl-propionate] | > 10 µM | ~10 µM
CCCCCCCn1nc(NCCCCc2cccc(SC(C)(C)C(=O)OCC)c2)c(=O)n(C)c1=O [Example 94, Ethyl 2-{3-[4-(2-heptyl-4-methyl-3,5-dioxo-2,3,4,5-tetrahydro-[1,2,4]triazin-6-ylamino)-butyl]-phenylsulfanyl}-2-methyl-propionate] | 3 to 10 µM | 3 to 10 µM
CCCCCCCn1c(=O)c(OCCCc2cccc(OC(C)(C)C(=O)OCC)c2)nn(CCCC(F)(F)F)c1=O [Example 8, Ethyl 2-(3-{3-[4-heptyl-3,5-dioxo-2-(4,4,4-trifluoro-butyl)-2,3,4,5-tetrahydro-[1,2,4]triazin-6-yloxy]-propyl}-phenoxy)-2-methyl-propionate] | ~0.3 µM | 3 to 10 µM
CCCCCCCn1c(=O)c(OCCCCCc2cccc(OC(C)(C)C(=O)OCC)c2)nn(CCCC(F)(F)F)c1=O [Example 18, Ethyl 2-(3-{5-[4-heptyl-3,5-dioxo-2-(4,4,4-trifluoro-butyl)-2,3,4,5-tetrahydro-[1,2,4]triazin-6-yloxy]-pentyl}-phenoxy)-2-methyl-propionate] | 0.03 to 0.1 µM | ~1 µM
CCCCCCCn1nc(NCCCc2cccc(OC(C)(C)C(=O)OCC)c2)c(=O)n(C)c1=O [Example 64, Ethyl 2-{3-[3-(2-heptyl-4-methyl-3,5-dioxo-2,3,4,5-tetrahydro-[1,2,4]triazin-6-ylamino)-propyl]-phenoxy}-2-methyl-propionate] | > 10 µM | 3 to 10 µM
CCOC(=O)C(C)(C)Oc1ccc(OCCCNc2nn(CCCC(F)(F)F)c(=O)n(C)c2=O)cc1 [Example 44, Ethyl 2-methyl-2-(4-{3-[4-methyl-3,5-dioxo-2-(4,4,4-trifluoro-butyl)-2,3,4,5-tetrahydro-[1,2,4]triazin-6-ylamino]-propoxy}-phenoxy)-propionate] | > 10 µM | 3 to 10 µM
CCCCCCCn1c(=O)c(OCCCCCc2cccc(OC(C)(C)C(=O)OCC)c2)nn(Cc2ccccc2)c1=O [Example 19, Ethyl 2-{3-[5-(2-benzyl-4-heptyl-3,5-dioxo-2,3,4,5-tetrahydro-[1,2,4]triazin-6-yloxy)-pentyl]-phenoxy}-2-methyl-propionate] | ~3 µM | 3 to 10 µM
CCCCn1c(=O)c(OCCCCCc2cccc(OC(C)(C)C(=O)O)c2)nn(C)c1=O [Example 12, 2-{3-[5-(4-Butyl-2-methyl-3,5-dioxo-2,3,4,5-tetrahydro-[1,2,4]triazin-6-yloxy)-pentyl]-phenoxy}-2-methyl-propionic Acid] | ~0.03 µM | 1 to 3 µM
CCCCCCCn1nc(OCCCCCc2cccc(OC(C)(C)C(=O)OCC)c2)c(=O)n(C)c1=O [Example 10, Ethyl 2-{3-[5-(2-heptyl-4-methyl-3,5-dioxo-2,3,4,5-tetrahydro-[1,2,4]triazin-6-yloxy)-pentyl]-phenoxy}-2-methyl-propionate] | 0.3 to 1 µM | ~1 µM
CCCCCCCn1c(=O)c(NCCCOc2ccc(SC(C)(C)C(=O)OCC)cc2)nn(C)c1=O [Example 49, Ethyl 2-{4-[3-(4-heptyl-2-methyl-3,5-dioxo-2,3,4,5-tetrahydro-[1,2,4]triazin-6-ylamino)-propoxy]-phenylsulfanyl}-2-methyl-propionate] | > 10 µM | > 10 µM
CCCCCCCn1c(=O)c(NCCCCc2cccc(SC(C)(C)C(=O)OCC)c2)nn(Cc2ccccc2)c1=O [Example 99, Ethyl 2-{3-[4-(2-benzyl-4-heptyl-3,5-dioxo-2,3,4,5-tetrahydro-[1,2,4]triazin-6-ylamino)-butyl]-phenylsulfanyl}-2-methyl-propionate] | > 10 µM | 3 to 10 µM
CCCCCCCn1c(=O)c(NCCCc2cccc(OC(C)(C)C(=O)OCC)c2)nn(Cc2ccccc2)c1=O [Example 70, Ethyl 2-{3-[3-(2-benzyl-4-heptyl-3,5-dioxo-2,3,4,5-tetrahydro-[1,2,4]triazin-6-ylamino)-propyl]-phenoxy}-2-methyl-propionate] | ~1 µM | ~10 µM
CCCCCCCn1nc(OCCOc2ccc(SC(C)(C)C(=O)OCC)cc2)c(=O)n(C)c1=O [Example 38, Ethyl 2-{4-[2-(2-heptyl-4-methyl-3,5-dioxo-2,3,4,5-tetrahydro-[1,2,4]triazin-6-yloxy)-ethoxy]-phenylsulfanyl}-2-methyl-propionate] | > 10 µM | > 10 µM
CCCCCCCn1nc(NCCCCc2cccc(OC(C)(C)C(=O)OCC)c2)c(=O)n(CCCCCCC)c1=O [Example 88, Ethyl 2-{3-[4-(2,4-diheptyl-3,5-dioxo-2,3,4,5-tetrahydro-[1,2,4]triazin-6-ylamino)-butyl]-phenoxy}-2-methyl-propionate] | ~0.3 µM | ~10 µM
